Laboratory results reported in patent publication US20230078764A1 (Yumanity Therapeutics, Inc., priority 2019, published 2023).

How the values were obtained:
[1] = molecular target: T1, human SCD1 (Homo sapiens, UniProt O00767); experiment: Growth inhibition of yeast strain expressing human SCD1 as sole desaturase (OLE1 deleted), OD600 readout; format: cell-based; details: yeast strain expressing human SCD1 as sole desaturase; growth (OD600) after 40 h at 30° C.; read-out: SCD1 IC50
T1 construct: expressed in transfected cells; host or cells: yeast strain with OLE1 deleted, plasmid-borne human SCD1 (selected in SD-Ura)
T1 sequence (O00767 1-359): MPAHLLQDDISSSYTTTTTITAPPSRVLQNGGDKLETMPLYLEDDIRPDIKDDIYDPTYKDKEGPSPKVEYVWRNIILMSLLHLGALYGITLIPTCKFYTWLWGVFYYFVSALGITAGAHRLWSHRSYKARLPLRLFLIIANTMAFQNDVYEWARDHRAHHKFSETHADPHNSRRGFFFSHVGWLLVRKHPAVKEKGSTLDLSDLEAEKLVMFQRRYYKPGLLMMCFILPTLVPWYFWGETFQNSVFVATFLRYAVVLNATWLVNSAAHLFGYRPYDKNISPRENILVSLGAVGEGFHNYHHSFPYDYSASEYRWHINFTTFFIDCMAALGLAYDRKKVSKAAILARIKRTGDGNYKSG

[2] = molecular target: T2, human SCD5 (Homo sapiens, UniProt Q86SK9); experiment: Growth inhibition of yeast strain expressing human SCD5 as sole desaturase (OLE1 deleted), OD600 readout; format: cell-based; details: yeast strain expressing human SCD5 as sole desaturase; growth (OD600) after 40 h at 30° C.; read-out: SCD5 IC50
T2 construct: expressed in transfected cells; host or cells: yeast strain with OLE1 deleted, plasmid-borne human SCD5 (selected in SD-Ura)
T2 sequence (Q86SK9 1-330): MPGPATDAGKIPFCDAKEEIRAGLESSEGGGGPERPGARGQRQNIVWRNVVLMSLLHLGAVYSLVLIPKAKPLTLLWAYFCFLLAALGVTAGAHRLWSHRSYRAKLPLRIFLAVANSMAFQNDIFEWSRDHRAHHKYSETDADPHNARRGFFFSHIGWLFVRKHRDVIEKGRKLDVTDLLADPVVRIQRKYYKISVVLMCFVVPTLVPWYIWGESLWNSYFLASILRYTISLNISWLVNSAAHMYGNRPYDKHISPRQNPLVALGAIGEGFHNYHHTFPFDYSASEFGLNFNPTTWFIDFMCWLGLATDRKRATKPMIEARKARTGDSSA

SMILES | IC50 [1] [µM] | IC50 [2] [µM]
Cn1ccc(C(=O)Nc2ccc(Cc3ccc(F)c(F)c3)cn2)cc1=O [Compound 515] | 5.9 | 0.32
CC(=O)c1ccc(C(=O)Nc2ccc(Cc3ccc(F)c(F)c3)cn2)nn1 [Compound 516] | 0.96 | 0.77
CC(=O)c1ccc(C(=O)Nc2ccc(Cc3cccc(Cl)c3)cn2)nn1 [Compound 517] | 0.18 | 0.14
O=C(Nc1ccc(Cc2ccc(F)c(F)c2)cn1)c1ncc(Br)cn1 [Compound 518] | > 45 | 1.7
C[C@H](O)c1ccc(C(=O)Nc2ccc(Cc3cccc(Cl)c3)cn2)cn1 [Compound 519] | 0.88 | 0.22
C[C@@H](O)c1ccc(C(=O)Nc2ccc(Cc3cccc(Cl)c3)cn2)cn1 [Compound 520] | 0.36 | 0.09
C#Cn1nc(C(=O)Nc2ccc(Cc3cccc(Cl)c3)cn2)ccc1=O [Compound 521] | 2.5 | 5.3
CC(O)c1ccc(C(=O)Nc2ccc(Cc3ccc(F)c(Cl)c3)cn2)cn1 (stereo not drawn) [Compound 522] | 0.36 | 0.06
Cc1cc(C(=O)Nc2ccc(Cc3ccc(F)c(F)c3)cn2)nn(C)c1=O [Compound 523] | > 45 | 0.11
Cc1cc(C(=O)Nc2ccc(Cc3cc(F)cc(F)c3)cn2)nn(C)c1=O [Compound 524] | > 45 | 0.029
N#Cc1ncc(C(=O)Nc2ccc(Cc3ccc(F)c(F)c3)cn2)cn1 [Compound 525] | > 45 | 0.55
N#Cc1ccc(NC(=O)c2ccc(Cc3cc(F)cc(F)c3)cn2)cn1 [Compound 526] | 0.099 | 0.01
O=C(Nc1ccc(Cc2cccc(F)c2)cn1)c1cc2ncnc(Cl)c2s1 [Compound 527] | > 45 | 1.3
Cn1nc(C(=O)Nc2ccc(Cc3cc(F)c(F)c(Cl)c3)cn2)ccc1=O [Compound 528] | 0.06 | 0.01
CC(O)c1ccc(C(=O)Nc2ccc(Cc3cccc(F)c3)cn2)cn1 (stereo not drawn) [Compound 529] | 1.1 | 0.67
CC(O)c1ccc(C(=O)Nc2ccc(Cc3ccc(F)c(F)c3)cn2)nn1 (stereo not drawn) [Compound 530] | 0.16 | 0.19
CCc1cc(C(=O)Nc2ccc(Cc3cccc(F)c3)cn2)nn(C)c1=O [Compound 531] | 1.3 | 0.34
Cn1nccc(C(=O)Nc2ccc(Cc3cc(F)cc(F)c3)cn2)c1=O [Compound 532] | 0.01 | 0.01
Cn1ccc(C(=O)Nc2ccc(Cc3cc(F)cc(F)c3)cn2)cc1=O [Compound 533] | 0.22 | 0.01
N#Cc1ccc(C(=O)Nc2ccc(Cc3ccc(F)c(C#N)c3)cn2)nc1 [Compound 534] | 6 | 0.2
N#Cc1cc(F)cc(Cc2ccc(NC(=O)c3ccc(C#N)nc3)nc2)c1 [Compound 535] | > 45 | 0.48
N#Cc1ccc(C(=O)Nc2ccc(Cc3cc(F)cc(C#N)c3)cn2)nc1 [Compound 536] | 1 | 0.11
Cn1nc(C(=O)Nc2ccc(Cc3ccc(F)cc3F)cn2)ccc1=O [Compound 537] | 17 | 0.49
Cn1cc(C(=O)Nc2ccc(Cc3ccc(F)cc3F)cn2)ccc1=O [Compound 538] | 1.6 | 0.18
Cn1nc(C(=O)Nc2ccc(Cc3cc(F)ccc3F)cn2)ccc1=O [Compound 539] | 3.5 | 0.17
Cn1nc(CO)cc1C(=O)Nc1ccc(Cc2cccc(F)c2)cn1 [Compound 540] | 0.06 | 0.01
N#Cc1ccc(C(=O)Nc2ccc(Cc3ccc(F)c(F)c3)cn2)cn1 [Compound 541] | 6.6 | 0.22
